From PubChem BioAssay AID179 (DTP/NCI, 2004) come the findings set out here.

Activity calls are given as the source filed them.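 The calls were made as follows: active = compounds giving half or more protection of infected cells from virus-caused growth loss, again on retest; inactive = the rest.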 Where a SMILES comes first, the peptide text is derived from it. The star is where a group is joined. Fmoc = O=C(OCC1c2ccccc2-c2ccccc21)*; OBn = c1ccc(CO*)cc1; tBu = CC(C)(C)*

In this test the test system is CEM cells HIV-1 protection, formazan growth assay. Description: NCI AIDS Antiviral Assay. The conditions noted are these: for IC50: measured here: growth of uninfected CEM cells. The method in brief:
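Human CEM cells, uninfected and HIV-1-infected, exposed to five drug concentrations; growth measured by soluble formazan assay and scored as percent protection from infection, with protecting compounds retested.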

Turning to `CC(C)N(c1cc2c(cc1F)c(=O)c(C(=O)O)cn2-c1ccc(N2CCN(C)CC2)cn1)C(C)C`, the EC50 was > 200 µM and the IC50 is > 200 µM.
For the compound `COc1ccc(/C=C2\N=C3Sc4c(nc[nH]c4=O)N3C2=O)cc1`, the EC50 was > 200 µM and the IC50 is > 200 µM.
Turning to `CCOC(=O)C1=C(Nc2cccc(OC)c2)OCC1=O`, the EC50 is > 200 µM and the IC50 is > 200 µM.
Regarding `O=C1C=Cc2ccccc2/C1=C/c1nc(-c2ccccc2)oc1O`, the EC50 is > 100 µM and the IC50 turned out to be 58.9 µM.
The corresponding values for `C/C(=N/NC(=S)N1CCCCC1)c1cccc(/C(C)=N\NC(=S)N2CCCCC2)n1` are > 200 µM and 13.2 µM.
Consider `C[Si](C)(C)C1(Sc2ccccc2)SCCCS1`, for which the outcome was inactive.
On to `NC(N)=N/N=C/c1c(-c2ccc(Cl)c(Cl)c2Cl)nc2sccn12`, for which the EC50 is 0.191 µM and the IC50 was 1.07 µM.
As for `CCCCCCCCCCCCCCCCOCC(COC1OC(CS(=O)(=O)O)C(O)C(O)C1O)OCCCCCCCCCCCCCCCC` (configuration not stated), the EC50 is 100 µM and the IC50 came to 123 µM.
For the compound `O=[N+]([O-])O.[Tb]`, the result was inactive.
Take `Cc1cccc2[s+]snc12`: the EC50 was > 245 µM and the IC50 came to 75.9 µM.
The corresponding values for `O=C1c2ccccc2CC12Cc1ccc3c(c1C2)CCC3` (configuration not stated) are > 200 µM and 89.1 µM.
As to `NC(N)=NCCS(=O)(=O)O`, the EC50 is > 200 µM and the IC50 is > 200 µM.
As to `O=C(CC(=O)c1cccc2ccccc12)C(=O)NC1C2CC3CC(C2)CC1C3` (configuration not stated), the result was inactive.
Consider `CC(OC(C)(C)C)C(NC(=O)OCC1c2ccccc2-c2ccccc21)C(=O)NC(Cc1ccccc1)C(=O)OCc1ccccc1` (configuration not stated) (Fmoc-Thr(tBu)-Phe-OBn; configuration not given here), for which the EC50 is > 200 µM and the IC50 is > 200 µM.
As for `Nc1ccc2ncc(Nc3ccc(F)cc3)nc2c1`, the EC50 was > 269 µM and the IC50 was found to be 135 µM.
The corresponding values for `CCc1ccccc1NC(=O)C(=O)CC(=O)c1sc(Nc2ccccc2)nc1C` are > 89.1 µM and 53.7 µM.
Turning to `CC1=Nc2ccccc2N=C(C)C1`, the EC50 was > 200 µM and the IC50 is > 200 µM.
Turning to `C/C(=N/Nc1ccc([N+](=O)[O-])cc1[N+](=O)[O-])c1ccccc1`, the EC50 was > 3.47 µM and the IC50 was > 3.47 µM.
Turning to `CCCCCCCC1=NN(c2ccc(S(=O)(=O)O)cc2)C(=O)C1N=O` (configuration not stated), the EC50 is > 200 µM and the IC50 is > 200 µM.
Turning to `NC1(N2SC(S)=C3CCCC=C32)CCCCC1`, the EC50 was 42.7 µM and the concentration for half-maximal inhibition (IC50) is > 200 µM.
The corresponding values for `O=S(=O)(O)CC(O)CCl` (configuration not stated) are > 200 µM and > 200 µM.
The corresponding values for `COc1nc(=O)n(C2CC(N=[N+]=[N-])C(CO)O2)cc1C` (configuration not stated) are 17.4 µM and > 200 µM.
The corresponding values for `CC(=O)NCc1nc(C#N)c(N)o1` are > 200 µM and > 200 µM.
Take `O=C(NS(=O)(=O)Nc1ccccc1)OC1CCCC1`: the EC50 is > 200 µM and the 50% inhibitory concentration (IC50) was > 200 µM.
Regarding `C=CC(OCC)(OCC)OCC`, the EC50 was > 1450 µM and the IC50 is > 1450 µM.
As for `O=C(N/N=C\c1ccccc1)c1ccccc1Nc1ccccc1C(=O)N/N=C/c1ccccc1`, the EC50 is 26.9 µM and the IC50 was > 200 µM.
Turning to `O=C(NCCCN1CCCCCC1)C(c1ccccc1)C1CCCCC1` (configuration not stated), the EC50 was > 200 µM and the half-maximal inhibitory concentration (IC50) came to 36.3 µM.
The corresponding values for `CC(C)(Oc1ccc2c(=O)cc(-c3ccccc3)oc2c1)C(=O)Nc1c(Cl)cccc1Cl` are > 11.2 µM and > 11.2 µM.
Regarding `COC1=CC(=O)C2C(C1=O)[C@@H]1c3ccccc3OC(C)(C)[C@H]21` (some centres not stated), the EC50 is > 166 µM and the IC50 was found to be 16.2 µM.
The corresponding values for `CCOC(=O)C(=Cc1ccc(Oc2ccccc2)cc1)C(=O)OCC` are > 11.2 µM and > 11.2 µM.
The corresponding values for `O=C1CCC[C@]2(C1)Cc1ccccc1N2` are > 468 µM and 288 µM.
The corresponding values for `O=C1N=C2C=CC=CN2CC1O` (configuration not stated) are > 200 µM and > 200 µM.
On to `Cc1ccc2c(c1)-c1[nH]c3ccccc3c1CS2`, for which the result was inactive.
Turning to `COC(=O)CCc1ccc2c(c1)CCC2`, the EC50 is > 200 µM and the IC50 is > 200 µM.
Take `COC(=O)[C@H](C)NC(=O)[C@H](NS(=O)(=O)c1nc2ccccc2s1)c1ccccc1`: the EC50 is > 200 µM and the IC50 is 37.2 µM.
The corresponding values for `CC1=N/C(=C\c2cccc3ccccc23)C(=O)O1` are > 11.5 µM and > 11.5 µM.
The corresponding values for `C[C@@H]1C(=O)O[C@H]1[C@H](O)CO` are > 200 µM and > 200 µM.
The corresponding values for `CN1CCCC2(CCCc3ccccc32)C1` (configuration not stated) are > 1000 µM and 257 µM.
In the case of `COc1ccc(CCn2cnn3c(=O)c4ccccc4nc3c2=O)cc1OC`, the EC50 was > 13.8 µM and the IC50 was > 13.8 µM.
Turning to `COc1ccc(/C=C(\C#N)c2ccc([N+](=O)[O-])cc2)cc1OC`, the EC50 is 102 µM and the IC50 was found to be 759 µM.
The corresponding values for `CCC1=NS(=O)(=O)c2c(ncn2C)N1` are > 1150 µM and > 1150 µM.
The corresponding values for `c1csc(-c2cc(-c3ccsc3)cs2)c1` are > 200 µM and > 200 µM.
With `O=S(=O)(c1cc(Cl)ccc1Cl)N1CCN(c2cccc(Cl)c2)CC1`, the result was inactive.
For the compound `Cc1ccc2nc(N/N=C/c3sccc3C)cc(C)c2c1`, the EC50 is > 200 µM and the IC50 was determined as 49 µM.
The corresponding values for `Cc1ccc2c(c1)SC(c1cc3c(cc1Br)OCO3)S2` (configuration not stated) are > 50.1 µM and > 50.1 µM.
The corresponding values for `CN(C)CCC(=O)CCN(C)C` are > 1020 µM and 186 µM.
The corresponding values for `Cc1oc2cc(O)ccc2c(=O)c1-c1ccccc1Br` are > 200 µM and 16.6 µM.
As to `COC1C(N)C(OC2C(Oc3cccc4c(O)c5c(=O)oc6ccc(C)c7c(=O)oc(c34)c5c67)OC(C)C(O)C2(C)O)OC(C)C1O` (configuration not stated), the EC50 is > 0.2 µM and the IC50 worked out at 0.0363 µM.
The corresponding values for `O=C(O)c1cc(N=Nc2c(O)cc(O)cc2C(=O)O)ccc1/C=C/c1ccc(N=Nc2c(O)cc(O)cc2C(=O)O)cc1C(=O)O` are 87.1 µM and 95.5 µM.
Turning to `Cc1ccc(S(=O)(=O)Nn2c(S)c(C#N)c(-c3ccc(Cl)cc3)c(C#N)c2=O)cc1`, the EC50 is > 200 µM and the IC50 came out at 12 µM.
The corresponding values for `Nc1nc(OCc2ccccc2)c2[nH]cnc2n1` are > 200 µM and 32.4 µM.
The corresponding values for `CC1(C)OC(=O)C2C3C=CC(C2C(=O)O)C31` (configuration not stated) are > 1120 µM and > 1120 µM.
The corresponding values for `O=C(N=Nc1ccccc1Br)NNc1ccccc1Br` are > 200 µM and > 100 µM.
For the compound `CCCC1(C)OC(=O)C(c2ccccc2)O1` (configuration not stated), the EC50 was > 200 µM and the IC50 was > 200 µM.
With `C=CCC(C(=N)C(C#N)(CC=C)C1=CCCCC1)C1=CCCCC1` (configuration not stated), the EC50 is > 97.7 µM and the IC50 is 81.3 µM.
The corresponding values for `CC1SC(=O)SC1C` (configuration not stated) are > 1700 µM and > 1700 µM.
